# Assay results as given in PMC4550830, “Pheromone binding proteins enhance the sensitivity of olfactory receptors to sex pheromones in Chilo suppressalis” (Scientific Reports, 2015).
# Values joined by “and” are separate entries in the source; they are usually repeats but may differ in a detail not shown here. Equal values may be shown once.
# How the values were obtained:
# [1] = target: T1, CsupPBP3 (Chilo suppressalis, UniProt F6K0S3); test: Fluorescence binding assay (1-NPN titration and competitive displacement), CsupPBP3; conditions: 2 μM protein in 50 mM Tris-HCl titrated with 1-NPN, triplicates
# T1 sequence (F6K0S3 22-166): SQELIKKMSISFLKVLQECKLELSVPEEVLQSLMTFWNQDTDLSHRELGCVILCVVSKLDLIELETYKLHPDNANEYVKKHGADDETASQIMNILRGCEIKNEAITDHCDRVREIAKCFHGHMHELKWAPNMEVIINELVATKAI
# Procedure: In order to measure the affinity of CsupPBP1–4 to the fluorescent probe N-phenyl-1-naphthylamine (1-NPN), a 2 μM solution of each CsupPBP in 50 mM Tris-HCl buffer was titrated with 1 mM 1-NPN in methanol to final concentrations of 2–16 μM. The affinities of CsupPBP1–4 to other ligands were measured in competitive binding assays, where a 2 μM solution of both CsupPBPs and 1-NPN was titrated with 1 mM methanol solutions of each lignd to final concentrations of 0.2–1.6 μM. The Prism software was used to analyse the data and plot the binding curves. The ability of ligand to compete with 1-NPN was measured in competitive binding assays, where a mixture of the protein and 1-NPN, both at the concentration of 2 μM were titrated with 0.1 mM or 1 mM solutions of each ligand to the final concentrations reported in the figures. Fluorescence intensities are reported as percent of the values measured in the absence of competitors. All experiments were performed in triplicates and mean values and standard errors are reported. Binding constants of competitors were calculated from the corresponding IC50 values using the equation: KD = [IC50]/1 + [1-NPN]/K1-NPN, [1-NPN] being the free concentration of 1-NPN and K1-NPN being the dissociation constant of the complex Protein/1-NPN.
# [2] = system: CsupPR1/CsupOrco; test: Two-electrode voltage clamp recording from Xenopus oocytes coexpressing CsupPR1/CsupOrco; assay type: cell-based, Chilo suppressalis; conditions: ligand 10^−4 mol/L, each of the four CsupPBPs versus DMSO alone
# Source text: (§1) The ORFs encoding CsupPRs were amplified and cloned into pT7Ts vector using specific primers (Supplementary Table S1). The cRNAs of all CsupPRs were synthesized using mMESSAGE Mmachine T7 kit (Ambion, Austin, TX).
# (§2) The entire coding region of each CsupOR was sub-cloned into the XhoI/NotI sites of pT7Ts vector (Invitrogen) (Kozak sequence added before the cutting site in forward primer). The cRNAs of all CsupPRs were synthesized using mMESSAGE Mmachine T7 kit (Ambion, Austin, TX).
# (§3) Electrophysiological recordings were performed according to previously reported protocols. Mature healthy oocytes (stage V–VII) (Nasco, Salida, California) were treated with collagenase I(GIBCO, Carlsbad, CA) in washing buffer (96 mM NaCl, 2 mM KCl, 5 mM MgCl2, and 5 mM HEPES [pH = 7.6]) for about 1 h at room temperature. […]
# (§4) Whole-cell currents were recorded from the injected Xenopus oocytes with a two-electrode voltage clamp. Odorant induced currents were recorded with an OC-725C oocyte clamp (Warner Instruments, Hamden, CT) at a holding potential of […]. […]
# (§5) Data acquisition and analyses were carried out with Digidata 1440A and pCLAMP 10.2 software (Axon Instruments Inc., Union City, CA). Statistical comparison of responses of oocytes to the tested ligands and dose-response data were analysed by GraphPad Prism 5.0 (GraphPad Software Inc., San Diego, CA). […]
# [3] = system: CsupPR2/CsupOrco; test: Two-electrode voltage clamp recording from Xenopus oocytes coexpressing CsupPR2/CsupOrco; assay type: cell-based, Chilo suppressalis
# Source text: as §1, §2
# (§6) Electrophysiological recordings were performed according to previously reported protocols. Mature healthy oocytes (stage V–VII) (Nasco, Salida, California) were treated with collagenase I(GIBCO, Carlsbad, CA) in washing buffer (96 mM NaCl, 2 mM KCl, 5 mM MgCl2, and 5 mM HEPES [pH = 7.6]) for about 1 h at room temperature. After being cultured overnight at 18 °C, oocytes were microinjected with 27.6 ng CsupORs cRNA and 27.6 ng CsupOrco cRNA. After injection, oocytes were incubated for 4–7 days at 18 °C in 1X Ringer’s solution (96 mM NaCl, 2 mM KCl, 5 mM MgCl2, 0.8 mM CaCl2, and 5 mM HEPES [pH = 7.6]) supplemented with 5% dialysed horse serum, […].
# (§7) Whole-cell currents were recorded from the injected Xenopus oocytes with a two-electrode voltage clamp. Odorant induced currents were recorded with an OC-725C oocyte clamp (Warner Instruments, Hamden, CT) at a holding potential of […]. All experiments on PR responses were performed in six replicates, those involving interactions with PBPs in four replicates.
# (§8) Data acquisition and analyses were carried out with Digidata 1440A and pCLAMP 10.2 software (Axon Instruments Inc., Union City, CA). Statistical comparison of responses of oocytes to the tested ligands and dose-response data were analysed by GraphPad Prism 5.0 (GraphPad Software Inc., San Diego, CA).
# (§9) Tested pheromone components and analogs were purchased from Nimrod Inc (Changzhou, China, purify 96%). they were dissolved in dimethyl sulfoxide (DMSO) to 1 M Stock solutions and stored at −20 °C. Before testing, the stock solutions were diluted with 1 X Ringer’s buffer (96 mM NaCl, 2 mM KCl, 5 mM MgCl2, 0.8 mM CaCl2 and 5 mM HEPES [pH = 7.6]).
# [4] = system: CsupPR4/CsupOrco; test: Two-electrode voltage clamp recording from Xenopus oocytes coexpressing CsupPR4/CsupOrco; assay type: cell-based, Chilo suppressalis
# Source text: as §1, §2, §3, §4, §5
# [5] = system: CsupPR6/CsupOrco; test: Two-electrode voltage clamp recording from Xenopus oocytes coexpressing CsupPR6/CsupOrco; assay type: cell-based, Chilo suppressalis; conditions: ligand 10^−4 mol/L; for Effect of PBPs on the response of PR6: each of the four CsupPBPs versus DMSO alone
# Source text: as §1, §2, §6, §7, §8, §9
# [6] = ligand 10^−4 mol/L, each of the four CsupPBPs versus receptor alone
structure (smiles),measurement,setting,value
"c1ccc(Nc2cccc3ccccc23)cc1 [1-NPN, N-phenyl-1-naphthylamine]",Kd,[1],~3 µM and 3.1 µM
CCCC/C=C\CCCCCCCCO [Z9–14:OH],Effect of PBPs on the response of PR1,[2],inhibitory effect
same,Effect of PBPs on the response of PR2,[3]; [6],inhibitory effect
same,Effect of PBPs on the response of PR4,[4]; [6],inhibitory effect
same,Effect of PBPs on the response of PR6,[5],inhibitory effect
same,Effect of PBPs on the response of PR6,[5]; listed as 4,reduction of the signal
"CCCCCC/C=C\CCCCCCCC=O [Z9–16:Ald, (Z)-9-hexadecenal]",Inward current response of PR4,"[4]; ligand 0.1 mM, no PBP, n = 6",specifically tuned
"CCCC/C=C\CCCCCCCCCC=O [Z11–16:Ald, (Z)-11-hexadecenal]",Increase in sensitivity (EC50) of PR2 in the presence of PBP1,[3]; dose-response with versus without PBP1,to minor extents
same,Increase in sensitivity (EC50) of PR2 in the presence of PBP2,[3]; dose-response with versus without PBP2,more than one order of magnitude
same,Increase in sensitivity (EC50) of PR2 in the presence of PBP3,[3]; dose-response with versus without PBP3,to minor extents
same,Change in sensitivity (EC50) of PR2 in the presence of PBP4,[3]; dose-response with versus without PBP4,not affected
same,Response of PR6 in the presence of PBP4 compared with other PBPs,[5]; PBP4,more strongly activated
same,Effect of PBPs on the response of PR6,[5],increased
